Laboratory results taken from paper PMC6333442, “Conserved allosteric pathways for activation of TRPV3 revealed through engineering vanilloid-sensitivity” (eLife, 2019).

Experiments:
[1] = tested on: TRPV3-6M/V2P (pore domain of rat TRPV2 in TRPV3-6M); test: Two-electrode voltage clamp, TRPV3-6M/V2P chimera in oocytes; assay type: cell-based, mouse; details: RR 50 µM
Method: All channel constructs were expressed in Xenopus laevis oocytes and studied using the two-electrode voltage clamp technique (TEVC) following 1–4 days of incubation after cRNA injection. The animal care and experimental procedures were performed in accordance with the Guide for the Care and Use of Laboratory Animals and were approved by the Animal Care and Use Committee of the National Institute of Neurological Disorders and Stroke (Animal protocol number 1253–17). Oocytes were removed surgically and incubated with agitation for 1 hr in a solution containing (in mM) 82.5 NaCl, 2.5 KCl, 1 MgCl2, 5 HEPES, pH 7.6 (with NaOH), and collagenase (2 mg/ml; Worthington Biochemical, Lakewood, NJ). Defolliculated oocytes were injected with cRNA for each of the constructs and incubated at 17°C in a solution containing (in mM) 96 NaCl, 2 KCl, 1 MgCl2, 1.8 CaCl2, 5 HEPES, pH 7.6 (with NaOH), and gentamicin (50 μg/ml, GIBCO-BRL, Gaithersburg, MD). Oocyte membrane voltage was controlled using an OC-725C oocyte clamp (Warner Instruments, Hamden, CT). Data were filtered at 1–3 kHz and digitized at 20 kHz using pClamp software (Molecular Devices, Sunnyvale, CA) and a Digidata 1440A digitizer (Axon Instruments). Microelectrode resistances were 0.1–1 MΩ when filled with 3 M KCl. For recording TRP channel currents, the external recording solution contained (in mM) 100 KCl, 10 HEPES, pH 7.6 (with KOH). […]
For temperature-activation experiments, calcium-activated chloride currents were minimized by using calcium-free solution containing 30 µM Caccinh-A01 and recording at negative membrane voltages. Heat stimuli were achieved by passing the external recording solution through glass capillary spirals immersed in a water bath maintained at about 70°C, and recordings were performed during constant perfusion with temperature measured using a thermistor (TA-29, Warner Instruments) located close to the cell. […] The mean I vs T relations were calculated by automatically binning each of the recordings in temperature intervals of 2°C, and averaging a single data point within each interval per cell. […]

[2] = molecular target: T1, TRPV3-6M + 5PM (Mus musculus, UniProt Q8K424, A560T/A606V/F522S/F625L/F656I/F666Y/H523E/L557M/Q580E/V587L/W521Y); test: Two-electrode voltage clamp, TRPV3-6M + 5PM in oocytes; assay type: cell-based; details: capsaicin 20 μM, ±60 mV
T1 construct: expressed in transfected cells; host or cells: Xenopus laevis oocytes
T1 sequence (Q8K424 1-791 W521Y/F522S/H523E/L557M/A560T/Q580E/V587L/A606V/F625L/F656I/F666Y): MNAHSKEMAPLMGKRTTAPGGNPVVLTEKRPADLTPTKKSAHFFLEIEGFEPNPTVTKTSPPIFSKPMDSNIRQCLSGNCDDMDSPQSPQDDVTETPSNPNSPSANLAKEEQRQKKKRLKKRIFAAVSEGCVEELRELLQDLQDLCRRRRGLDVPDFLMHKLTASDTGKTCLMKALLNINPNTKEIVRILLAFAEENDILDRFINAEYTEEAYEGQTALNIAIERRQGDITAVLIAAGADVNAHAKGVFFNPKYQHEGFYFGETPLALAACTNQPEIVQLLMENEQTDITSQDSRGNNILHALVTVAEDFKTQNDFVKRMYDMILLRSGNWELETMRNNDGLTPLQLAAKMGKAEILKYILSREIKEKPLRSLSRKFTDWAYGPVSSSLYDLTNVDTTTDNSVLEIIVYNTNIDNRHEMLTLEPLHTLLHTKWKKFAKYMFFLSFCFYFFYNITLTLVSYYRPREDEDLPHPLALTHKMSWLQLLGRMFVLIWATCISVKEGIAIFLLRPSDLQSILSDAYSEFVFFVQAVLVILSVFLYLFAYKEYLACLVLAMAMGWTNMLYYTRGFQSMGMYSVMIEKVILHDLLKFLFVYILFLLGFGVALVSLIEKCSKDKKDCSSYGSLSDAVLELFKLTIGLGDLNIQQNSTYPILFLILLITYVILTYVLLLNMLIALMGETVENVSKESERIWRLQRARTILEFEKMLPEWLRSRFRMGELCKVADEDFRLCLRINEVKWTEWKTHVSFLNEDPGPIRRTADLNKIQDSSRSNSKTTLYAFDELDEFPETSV
Method: All channel constructs were expressed in Xenopus laevis oocytes and studied using the two-electrode voltage clamp technique (TEVC) following 1–4 days of incubation after cRNA injection. The animal care and experimental procedures were performed in accordance with the Guide for the Care and Use of Laboratory Animals and were approved by the Animal Care and Use Committee of the National Institute of Neurological Disorders and Stroke (Animal protocol number 1253–17). Oocytes were removed surgically and incubated with agitation for 1 hr in a solution containing (in mM) 82.5 NaCl, 2.5 KCl, 1 MgCl2, 5 HEPES, pH 7.6 (with NaOH), and collagenase (2 mg/ml; Worthington Biochemical, Lakewood, NJ). Defolliculated oocytes were injected with cRNA for each of the constructs and incubated at 17°C in a solution containing (in mM) 96 NaCl, 2 KCl, 1 MgCl2, 1.8 CaCl2, 5 HEPES, pH 7.6 (with NaOH), and gentamicin (50 μg/ml, GIBCO-BRL, Gaithersburg, MD). Oocyte membrane voltage was controlled using an OC-725C oocyte clamp (Warner Instruments, Hamden, CT). Data were filtered at 1–3 kHz and digitized at 20 kHz using pClamp software (Molecular Devices, Sunnyvale, CA) and a Digidata 1440A digitizer (Axon Instruments). Microelectrode resistances were 0.1–1 MΩ when filled with 3 M KCl. For recording TRP channel currents, the external recording solution contained (in mM) 100 KCl, 10 HEPES, pH 7.6 (with KOH). Experiments were performed at room temperature (~22°C), except as indicated otherwise. […] Current time courses were obtained by stepping membrane voltage every 2 s from a holding potential of 0 mV to either −60 or +60 mV for 100 ms, and plotting the mean steady-state current at the end of each voltage step as a function of total recording time. I-V relations were obtained similarly, but voltage was stepped every 2 s to a different value, in 10 mV increments and starting at −60 mV.

Structure (SMILES) | block of RTx-activated current [1] | channel activation (current response) [2]
N.N.N.N.N.N.N.N.N.N.N.N.N.N.[Cl-].[Cl-].[Cl-].[Cl-].[Cl-].[Cl-].[O-2].[O-2].[Ru+3].[Ru+3].[Ru+4] [RR, ruthenium red] | readily blocked | 
COc1cc(CNC(=O)CCCC/C=C/C(C)C)ccc1O [capsaicin] |  | cannot be activated
